Article PMC6681416, “Novel Derivatives of Deoxycholic Acid Bearing Linear Aliphatic Diamine and Aminoalcohol Moieties and their Cyclic Analogs at the C3 Position: Synthesis and Evaluation of Their In Vitro Antitumor Potential” (Molecules, 2019)

Tests used:
HuTu-80 cells [1] = assay: cells; type: cell-based; conditions: ratio IC50 hFF3 / IC50 HuTu-80
Source text: (§1) According to our previous data and data published by other research groups, chemical transformations of bile acids can greatly improve their antitumor potential. Thus, as the first step of evaluation of the biological activities of our novel DCA derivatives we assessed their effects on tumor cell viability. The cytotoxicity of the compounds was investigated with respect to a panel of cultured cell lines, including human duodenal HuTu-80, hepatocellular HepG2, cervical KB-3-1 and lung A549 carcinomas as well as murine macrophage RAW264.7 and non-transformed human fibroblasts hFF3 by MTT assay.
(§2) Human duodenal carcinoma HuTu-80 cells, human hepatocellular carcinoma HepG2 cells, human cervical carcinoma KB-3-1 cells, human lung carcinoma A549 cells were obtained from the Russian Cell Culture Collection (Institute of Cytology, RAS, St. Petersburg, Russia). Non-transformed human fibroblasts hFF3 were kindly provided by Dr. Olga Koval (Institute of Chemical Biology and Fundamental Medicine, SB RAS, Novosibirsk, Russia). RAW264.7 macrophages were kindly provided by Prof. Dr. Dmitry Kuprash (Engelhardt Institute of Molecular Biology, RAS, Moscow, Russia). The cells were cultured in DMEM (Sigma-Aldrich Inc., St. Louis, MO, USA) supplemented with 10% (v/v) heat-inactivated fetal bovine serum (FBS) (BioloT, St. Petersburg, Russia), 100 U/mL penicillin (ICN Biomedicals Inc., Costa Mesa, CA, USA), 100 µg/mL streptomycin and 0.25 µg/mL amphotericin; additionally, in the case of RAW264.7 cells, concentration of glucose in the medium was increased up to 4.5 mg/mL. The cells were incubated at 37 °C in 5% CO2 and 95% air (hereafter referred to as standard conditions). DCA derivatives were dissolved in DMSO to yield stock solutions of 10 mmol/L and stored at −20 °C prior to use.
(§3) Cells were seeded in triplicate in 96-well plates at a density of 5 × 10^3 (HuTu-80, HepG2, KB-3-1, hFF3), 10^4 (A549) or 5 × 10^4 (RAW264.7) cells per well. Cells were incubated under standard conditions for 24 h and then they were treated with varying doses of investigated derivatives for subsequent 24 h. Then 10 µL of MTT solution (5 mg/mL) were added to each wells and cells were incubated for an additional 2 h under standard conditions. The crystals of formazan forming within live cells were solubilized with DMSO and the absorbance was measured in a Multiscan RC plate reader (Thermo LabSystems, Helsinki, Finland) at a test and reference wavelengths of 570 nm and 620 nm, respectively. […] To perform SAR analysis, hierarchical clustering of compounds based on their IC50 values was fulfilled with Euclidean distance by using the Morpheus tool (https://software.broadinstitute.org/morpheus/), a platform designed for visualization and analysis of data in a matrix format. Heatmap, containing compounds’ SI values, were constructed by using the Excel 2010 software (Microsoft, Redmond, WA, USA). In order to reveal whether ROS participate in the induction of cell death by compound 9, HuTu-80 cells cultured in 96-well plate were pretreated by NAC at 2 mM for 1 h. Thereafter, the medium was replaced by fresh medium with compound 9 at 8 µM and the cells were incubated with subsequent 24 h under standard conditions. After this time period, the curves of cytotoxicity of compound 9 in the presence or absence of NAC were compared.

RAW264.7 macrophages = assay: MTT cytotoxicity assay, RAW264.7; type: cell-based, murine; conditions: for IC50: Mus musculus, RAW264.7, MTT, 24 h, read-out: IC50 RAW264.7 (macrophage); for Selectivity index RAW264: ratio IC50 hFF3 / IC50 RAW264.7
Source text: as §1, §2, §3

[2] = tested on: NO synthesis by IFNγ-activated RAW264.7 cells; assay: Inhibition of NO production by stimulated macrophages (Griess); type: cell-based, murine; conditions: Mus musculus, RAW264.7, 24 h, read-out: IC50NO
Description: RAW264.7 cells were seeded in triplicate in 96-well plates at a density of 5 × 10^4 cells/well and incubated under standard conditions for 24 h. The cells were treated with 20 ng/mL of murine recombinant IFNγ (GIBCO, Gaithersburg, MD, USA), with or without (control) compounds at various concentrations for 24 h. The level of NO production was evaluated by determining the nitrite concentration in culture medium with a Griess Reagent System (Promega, Madison, WI, USA). The IC50^NO value was calculated as the derivative concentration required to decrease NO production to 50% of the non-treated control.

HuTu-80 cells [3] = tested on: HuTu-80 cells; design: method as in PMID 28688958, PMID 26037611, PMID 28887170; conditions: MTT, 24 h; values marked by asterisk; ref [21],[22],[23]; read-out: IC50 HuTu-80 (duodenum); cited from earlier work
HepG2 cells [4] = tested on: HepG2 cells; design: method as in PMID 28688958, PMID 26037611, PMID 28887170; conditions: MTT, 24 h; values marked by asterisk; ref [21],[22],[23]; read-out: IC50 HepG2 (liver); cited from earlier work
KB-3-1 cells [5] = tested on: KB-3-1 cells; design: method as in PMID 28688958, PMID 26037611, PMID 28887170; conditions: MTT, 24 h; values marked by asterisk; ref [21],[22],[23]; read-out: IC50 KB3-1 (cervix); cited from earlier work
[6] = tested on: non-transformed human fibroblasts hFF3; design: method as in PMID 28688958, PMID 26037611, PMID 28887170; conditions: MTT, 24 h; values marked by asterisk; ref [21],[22],[23]; read-out: IC50 hFF3 (fibroblast); cited from earlier work
[7] = tested on: panel of cultured cell lines (HuTu-80, HepG2, KB-3-1, A549, RAW264.7, hFF3); design: method as in PMID 28688958, PMID 26037611, PMID 28887170; conditions: MTT, 24 h; summary of Table 1 values marked by asterisk; ref [21],[22],[23]; read-out: IC50, range or lowest value over tested cell lines; cited from earlier work
HepG2 cells [8] = assay: MTT cytotoxicity assay, HepG2; type: cell-based, human; conditions: ratio IC50 hFF3 / IC50 HepG2
Source text: as §1, §2, §3

KB-3-1 cells [9] = assay: MTT cytotoxicity assay, KB-3-1; type: cell-based, human; conditions: ratio IC50 hFF3 / IC50 KB-3-1
Source text: as §1, §2, §3

A549 cells [10] = assay: MTT cytotoxicity assay, A549; type: cell-based, human; conditions: ratio IC50 hFF3 / IC50 A549
Source text: as §1, §2, §3

A549 cells [11] = tested on: A549 cells; design: method as in PMID 28688958, PMID 26037611, PMID 28887170; conditions: MTT, 24 h; values marked by asterisk; ref [21],[22],[23]; read-out: IC50 A549 (lung); cited from earlier work

Row | Structure (SMILES) | Selectivity index HuTu-80 (HuTu-80 cells [1]) | IC50 (RAW264.7 macrophages) [µM] | Selectivity index RAW264 (RAW264.7 macrophages) | IC50 [2] [µM] | IC50 (HuTu-80 cells [3]) [µM] | IC50 (HepG2 cells [4]) [µM] | IC50 (KB-3-1 cells [5]) [µM] | IC50 [6] [µM] | IC50 [7] [µM] | Selectivity index HepG-2 (HepG2 cells [8]) | Selectivity index KB-3-1 (KB-3-1 cells [9]) | Selectivity index A549 (A549 cells [10]) | IC50 (A549 cells [11]) [µM]
1 | COC(=O)CC[C@@H](C)[C@H]1CCC2[C@@H]3CC[C@@H]4C[C@@]5(CC[C@]4(C)C3CC(=O)[C@@]21C)CO5 (stereo partly drawn) [Compound 1, methyl 3β-oxirane-12-oxo-5β-cholan-24-oate] | 1.6 | > 100 | <0.5 | 16.4 ± 0.9 | 17 ± 1.6 | 43.5 ± 1.9 | 27.9 ± 2.5 | 53.9 ± 3.3 | ≥ 17 |  |  |  | 
2 | COC(=O)CC[C@@H](C)[C@H]1CCC2[C@@H]3CC[C@@H]4C[C@](O)(CNCCN(C)C)CC[C@]4(C)C3CC(=O)[C@@]21C (some centres unmarked) [Compound 2] | 3.6 | 21.7 ± 0.87 | 1.2 | > 10 | 7.1 ± 0.6 | 8 ± 0.9 | 26.2 ± 0.8 | 25.4 ± 2.2 | 7.1 to 36 | 3.2 | 1 | 0.7 | 36 ± 0.7
3 | COC(=O)CC[C@@H](C)[C@H]1CCC2[C@@H]3CC[C@@H]4C[C@](O)(CNCCCN(C)C)CC[C@]4(C)C3CC(=O)[C@@]21C (some centres unmarked) [Compound 3] | 2.2 | 6.7 ± 0.4 | 1 | > 10 | 3 ± 0.4 | 4 ± 0.2 | 5.9 ± 0.5 | 6.5 ± 0.5 | 3 to 6.8 | 1.6 | 1.1 | 1 | 6.8 ± 0.1
4 | COC(=O)CC[C@@H](C)[C@H]1CCC2[C@@H]3CC[C@@H]4C[C@](O)(CN5CCN(C)CC5)CC[C@]4(C)C3CC(=O)[C@@]21C (some centres unmarked) [Compound 4] | 6.9 | 20.4 ± 0.4 | 1.6 | > 10 | 4.7 ± 0.2 | 3.6 ± 0.7 | 23.5 ± 1.7 | 32.5 ± 1.4 |  | 9 | 1.4 | 1.5 | 21.6 ± 2.5
